Measured values taken from publication PMC4275348 (Molecular microbiology, 2014).
Where a chain is given by its changes, count along the chain named.

Legend:
[1] = target: LuxN (Vibrio campbellii, UniProt A7MRY4); conditions: 1 μM AHL; V. harveyi TL25; versus DMSO
[2] = target: T1, LuxN^H210N (Vibrio campbellii, UniProt A7MRY4, H210N); assay: Bioluminescence of V. harveyi XK006 carrying luxN H210N; format: cell-based, Vibrio harveyi; conditions: dose-dependent light production
T1 sequence (A7MRY4 1-849 H210N): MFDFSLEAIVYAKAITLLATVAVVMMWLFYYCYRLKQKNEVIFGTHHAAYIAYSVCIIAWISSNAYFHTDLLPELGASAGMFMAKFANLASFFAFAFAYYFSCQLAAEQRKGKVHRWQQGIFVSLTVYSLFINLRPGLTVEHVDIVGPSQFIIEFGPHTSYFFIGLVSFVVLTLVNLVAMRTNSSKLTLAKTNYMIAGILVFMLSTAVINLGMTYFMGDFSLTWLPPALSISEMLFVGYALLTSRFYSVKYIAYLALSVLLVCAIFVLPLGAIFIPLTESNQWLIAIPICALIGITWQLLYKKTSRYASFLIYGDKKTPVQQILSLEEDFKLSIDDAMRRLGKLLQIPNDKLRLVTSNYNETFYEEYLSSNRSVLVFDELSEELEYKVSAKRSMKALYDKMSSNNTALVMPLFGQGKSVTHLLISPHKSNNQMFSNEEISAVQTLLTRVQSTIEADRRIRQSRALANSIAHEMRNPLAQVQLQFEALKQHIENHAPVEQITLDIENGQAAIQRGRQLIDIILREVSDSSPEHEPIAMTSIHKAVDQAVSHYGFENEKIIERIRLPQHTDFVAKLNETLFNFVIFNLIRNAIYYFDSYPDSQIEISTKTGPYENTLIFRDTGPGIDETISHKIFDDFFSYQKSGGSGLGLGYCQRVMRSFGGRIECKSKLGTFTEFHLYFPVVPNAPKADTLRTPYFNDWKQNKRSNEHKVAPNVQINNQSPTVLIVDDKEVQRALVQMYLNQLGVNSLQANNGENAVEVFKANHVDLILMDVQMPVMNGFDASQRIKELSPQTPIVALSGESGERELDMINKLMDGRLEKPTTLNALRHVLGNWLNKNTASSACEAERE

[3] = target: T2, LuxN^G147D/Y194H (Vibrio campbellii, UniProt A7MRY4, G147D/Y194H); assay: Bioluminescence of V. harveyi XK006 carrying luxN G147D/Y194H; format: cell-based, Vibrio harveyi
T2 sequence (A7MRY4 1-849 G147D/Y194H): T1 sequence (A7MRY4 1-849 H210N) with G147D, Y194H, N210H

[4] = system: Kin^off LuxN mutants; assay: Bioluminescence of V. harveyi XK847 harboring Kin^off luxN alleles; format: cell-based, Vibrio harveyi
[5] = target: T3, luxN^T159I/Y193K (Vibrio campbellii, UniProt A7MRY4, N193K/T159I); assay: Bioluminescence of V. harveyi XK006 carrying luxN T159I/Y193K; format: cell-based, Vibrio harveyi
T3 sequence (A7MRY4 1-849 T159I/N193K): T1 sequence (A7MRY4 1-849 H210N) with T159I, N193K, N210H

C[C@@H](O)CC(=O)N[C@H]1CCOC1=O [3OH-C4 HSL, N-((R)-3-hydroxybutanoyl)-L-homoserine lactone] was tested, and the “increase in light production” value [1] was “over 1000 fold”, the “less sensitivity than for the other two C4 AHLs (3O-C4 HSL, C4 HSL)” value [2] was 10 fold and the “response (dose-dependent light production)” value [3] was “most potent agonist”. The “induction of light production” value ([3]; 20 nM AI-1) was 30 fold, the “light production / detection” value [4] was “produced maximal light” and the “response (dose-dependent light production)” value [5] was “most potent agonist”.
